# Results reported in publication PMC2981624 (Chemical research in toxicology, 2010).
# Entries after “also recorded” stand apart in the source; their conditions may differ. Where two headings read alike, the source gives them in different places.
# Experiments:
# [1] = system: Salmonella typhimurium strain TA98; settings: for concentration dependence of mutagenicity (revertants/plate): 0.1-100 μM
# [2] = system: Salmonella typhimurium strain TA98; settings: cited from earlier work
# [3] = system: primary normal human lung cells; settings: 0.1 to 10 μM; cited from earlier work
# [4] = system: Salmonella typhimurium strain TA100; settings: cited from earlier work
# [5] = system: Salmonella typhimurium strain TA100; settings: 10 and 100 μM (Figure 1)
# lung adenoma = settings: cited from earlier work
# [6] = 10 μM, 50 pmol 1A1 Supersomes, presence of NADPH
# [7] = 10 μM, 50 pmol recombinant 2A13, presence of NADPH
# [8] = 0.5 mg human lung microsomes, presence of NADPH
# [9] = 0.5 mg human lung microsomes, presence of NADPH, equal concentrations
# [10] = 2 mg rat liver S9, presence of NADPH
smiles,measurement,setting,value
"Cc1c[nH]c2ccccc12 [3MI, 3-methylindole]",mutagenicity (revertants/plate),[1]; [6],statistically significant increases in mutagenicity
same,mutagenicity (number of mutants),"[1]; 10 μM, 50 pmol purified 2F3, presence of NADPH",significant increase in the number of mutants
same,mutagenicity (revertants/plate),[1]; [7],statistically significant increases in the number of revertants per plate; also recorded: highest levels of mutagenicity
same,cytotoxicity to bacteria (density of background lawn),"[1]; 100 μM, 0.5 mg human lung microsomes",cytotoxic
same,concentration dependence of mutagenicity (revertants/plate),[1]; [8],"increasing mutagenicity up through the 10 μM concentration, but lower revertants/plate with the highest concentration (100 μM)"
same,mutagenicity compared to BaP,[1]; [9],"more mutagenic than BaP was at the 1.0 μM (p=0.006) and 10 μM (p=0.005) concentrations, although not at the 0.1 μM (p=0.1) or 100 μM (p=0.9) concentrations"
same,mutagenicity compared to NNK,[1]; [9],"significantly more mutagenic than NNK was at the 0.1 μM (p=0.05), 1.0 μM (p=0.002), and 10 μM (p=0.007) concentrations, although not at the 100 μM (p=0.8) concentration"
same,mutagenicity (revertants/plate),"[1]; 2 mg human liver S9, presence of NADPH","Neither incubation of 3MI with Salmonella typhimurium strain TA98 and 2 mg human liver S9, or 2 mg rat liver S9 was mutagenic; also recorded: failed to produce 3MI-mediated mutagenesis"
same,mutagenicity (revertants/plate),[1]; [10],"Neither incubation of 3MI with Salmonella typhimurium strain TA98 and 2 mg human liver S9, or 2 mg rat liver S9 was mutagenic; also recorded: failed to produce 3MI-mediated mutagenesis"
same,mutagenicity,[2]; purified CYP2F3,mutagenic
same,mutagenicity,[2]; rat liver S9 fractions,not mutagenic
same,induction of markers of carcinogenesis,[3],"induce markers of carcinogenesis, including DNA damage and p53 nuclear localization"
same,mutagenicity,[4]; rat liver S9,not mutagenic
same,mutagenicity (revertants/plate),[5]; [8],failed to increase mutagenesis at any concentration
same,mutagenicity (revertants/plate),[5]; [10],failed to increase mutagenesis at any concentration
"COc1c2occc2cc2ccc(=O)oc12 [8-MOP, 8-methoxypsoralen]",chemopreventive effect,lung adenoma,chemopreventive effect
"Nn1nnc2ccccc21 [ABT, 1-aminobenzotriazole, reference compound]",mutagenicity of inhibitor alone,"[1]; 0.5 mM ABT alone, 0.5 mg human lung microsomes",did not prove to be mutagenic
same,effect on 3MI-mediated mutagenesis,"[1]; 0.5 mM ABT with 100 μM 3MI, 0.5 mg human lung microsomes, presence of NADPH",completely inhibited the mutagenesis
same,effect on B(a)P-mediated mutagenesis,"[1]; 0.5 mM ABT with 100 μM B(a)P, 0.5 mg human lung microsomes, presence of NADPH",completely inhibited the mutagenesis
same,effect on NNK-mediated mutagenesis,"[1]; 0.5 mM ABT with 100 μM NNK, 0.5 mg human lung microsomes, presence of NADPH",completely inhibited the mutagenesis
"CN(CCCC(=O)c1cccnc1)N=O [NNK, 4-(methylnitrosamino)-1-(3-pyridyl)-1-butanone, reference compound]",mutagenicity (revertants/plate),[1]; [6],did not result in an increased number of revertants
same,mutagenicity (revertants/plate),[1]; [7],statistically significant increases in the number of revertants per plate
same,concentration dependence of mutagenicity (revertants/plate),[1]; [8],mutagenicity increased in a concentration-dependent manner up through the 100 μM concentration
same,base pair substitution mutations,[4],does not cause base pair substitution mutations
same,mutagenicity (revertants/plate),[5]; [8],failed to increase mutagenesis at any concentration
same,mutagenicity (revertants/plate),[5]; [10],failed to increase mutagenesis at any concentration
